In BindingDB's records for doi:10.1021/jm9904102 (Abbott Laboratories, 2000) one finds IC50 data, which are given here for 16 compounds.

This assay is described as follows: Inhibition of calcium ionophore (A-23187)-stimulated LTB4 formation in human neutrophil assay.
Broadly, the IC50 is the concentration needed to halve the response being measured. For the compound `O=C(O)/C=N/OC(c1ccc(OCc2nc(-c3ccccc3)cs2)cc1)C1CCCCC1` (stereo unspecified) [{Cyclohexyl-[4-(4-phenyl-thiazol-2-ylmethoxy)-phenyl]-methoxyimino}-acetic acid (1.25H2O)], the IC50 was 0.021 µM.
Then `C/C(=N\OC(CC1CCCCC1)c1ccc(OCc2ccc3ccccc3n2)cc1)C(=O)O` (stereo unspecified) [2-{2-Cyclohexyl-1-[4-(quinolin-2-ylmethoxy)-phenyl]-ethoxyimino}-propionic acid], with 0.029 µM; and `CC(C)(CC(O/N=C/C(=O)O)c1ccc(OCc2ccc3ccccc3n2)cc1)c1ccccc1` (stereo unspecified) [{3-Methyl-3-phenyl-1-[4-(quinolin-2-ylmethoxy)-phenyl]-butoxyimino}-acetic acid], with 0.01 µM.
For `Cc1cc(C(O/N=C/C(=O)O)C2CCCCC2)ccc1OCc1ccc2ccccc2n1` (stereo unspecified) [{Cyclohexyl-[3-methyl-4-(quinolin-2-ylmethoxy)-phenyl]-methoxyimino}-acetic acid (0.4H2O)] the value was 0.02 µM.
On to `C/C(=N\OC(c1ccc(OCc2nc(-c3ccccc3)cs2)cc1)C1CCCCC1)C(=O)O` (stereo unspecified) [2-{Cyclohexyl-[4-(4-phenyl-thiazol-2-ylmethoxy)-phenyl]-methoxyimino}-propionic acid (0.5H2O)], for which the IC50 was 0.02 µM.
Then `C/C(=N\OC(c1ccc(OCc2ccc3ccccc3n2)cc1)c1cccs1)C(=O)O` (stereo unspecified) [2-{[4-(Quinolin-2-ylmethoxy)-phenyl]-thiophen-2-yl-methoxyimino}-propionic acid], with 0.033 µM.
Then `O=C(O)/C(CCc1ccccc1)=N/OC(c1ccc(OCc2ccc3ccccc3n2)cc1)C1CCCCC1` (stereo unspecified) [2-{Cyclohexyl-[4-(quinolin-2-ylmethoxy)-phenyl]-methoxyimino}-4-phenyl-butyric acid (0.5H2O)], with 0.02 µM.
For `O=C(O)/C=N/OC(c1ccc(OCc2ccc3ccccc3n2)cc1)C1C2CC3CC(C2)CC1C3` (stereo unspecified) [{Adamantan-2-yl-[4-(quinolin-2-ylmethoxy)-phenyl]-methoxyimino}-acetic acid] the value was 0.021 µM; for `O=C(O)/C=N/OC(c1ccc(OCc2cnc3ccccc3n2)cc1)C1CCCCC1` (stereo unspecified) [{Cyclohexyl-[4-(quinoxalin-2-ylmethoxy)-phenyl]-methoxyimino}-acetic acid], 0.025 µM; for `C/C(=N\OC(c1ccc(OCc2nc3ccccc3s2)cc1Cl)C1CCCCC1)C(=O)O` (stereo unspecified) [2-{[4-(Benzothiazol-2-ylmethoxy)-2-chloro-phenyl]-cyclohexyl-methoxyimino}-propionic acid], 0.028 µM.
For the compound `CC(/C=C/C(=O)O)=N\OC(c1ccc(OCc2ccc3ccccc3n2)cc1)C1CCCCC1` (stereo unspecified) [4-{Cyclohexyl-[4-(quinolin-2-ylmethoxy)-phenyl]-methoxyimino}-pent-2-enoic acid (0.25H2O)], the IC50 came to 0.04 µM.
Take `C/C(=N\OC(c1ccc(OCc2cscn2)cc1)C1CCCCC1)C(=O)O` (stereo unspecified) [2-{Cyclohexyl-[4-(thiazol-4-ylmethoxy)-phenyl]-methoxyimino}-propionic acid (0.25H2O)]: the IC50 was 0.36 µM.
For `C/C(=N\OC(c1ccc(OCc2nc3cc(F)ccc3s2)cc1Cl)C1CCCCC1)C(=O)O` (stereo unspecified) [2-{[2-Chloro-4-(5-fluoro-benzothiazol-2-ylmethoxy)-phenyl]-cyclohexyl-methoxyimino}-propionic acid] the value was 0.048 µM; for `C/C(=N\OC(c1ccc(OCc2ccc3ccccc3n2)c(C)c1)C1CCCCC1)C(=O)O` (stereo unspecified) [2-{Cyclohexyl-[3-methyl-4-(quinolin-2-ylmethoxy)-phenyl]-methoxyimino}-propionic acid (0.1H2O)], 0.02 µM; for `C/C(=N\OC(c1cc(OCc2ccc3ccccc3n2)on1)C1CCCCC1)C(=O)O` (stereo unspecified) [2-{Cyclohexyl-[5-(quinolin-2-ylmethoxy)-isoxazol-3-yl]-methoxyimino}-propionic acid], 0.49 µM.
Turning to `O=C(O)/C=N/OC(c1ccc(OCc2nc3cc(F)ccc3s2)cc1Cl)C1CCCCC1` (stereo unspecified) [{[2-Chloro-4-(5-fluoro-benzothiazol-2-ylmethoxy)-phenyl]-cyclohexyl-methoxyimino}-acetic acid], the IC50 was 0.014 µM.
